Results from ChEMBL document CHEMBL4004803, “Syntheses and antibacterial activity of soluble 9-bromo substituted indolizinoquinoline-5,12-dione derivatives” (Eur J Med Chem, 2017).
Values after ≈ are worked out from the molar mass of the structure shown.

Columns and labels:
[1] = test system: Staphylococcus aureus; experiment: Antibacterial activity against methicillin-resistant Staphylococcus aureus 214026 clinical isolate after 20 to 24 hrs by two-fold microdilution method; assay type: functional
[2] = test system: Staphylococcus aureus; experiment: Antibacterial activity against methicillin-resistant Staphylococcus aureus 112106 clinical isolate after 20 to 24 hrs by two-fold microdilution method; assay type: functional
[3] = test system: Staphylococcus aureus; experiment: Antibacterial activity against methicillin-resistant Staphylococcus aureus 1012029 clinical isolate after 20 to 24 hrs by two-fold microdilution method; assay type: functional
[4] = test system: Staphylococcus aureus; experiment: Antibacterial activity against methicillin-resistant Staphylococcus aureus 221022 clinical isolate after 20 to 24 hrs by two-fold microdilution method; assay type: functional
[5] = test system: Staphylococcus aureus; experiment: Antibacterial activity against methicillin-resistant Staphylococcus aureus 110325 clinical isolate after 20 to 24 hrs by two-fold microdilution method; assay type: functional
[6] = test system: Staphylococcus aureus; experiment: Antibacterial activity against methicillin-resistant Staphylococcus aureus 831024 clinical isolate after 20 to 24 hrs by two-fold microdilution method; assay type: functional
[7] = test system: Staphylococcus aureus; experiment: Antibacterial activity against methicillin-resistant Staphylococcus aureus 1215028 clinical isolate after 20 to 24 hrs by two-fold microdilution method; assay type: functional
[8] = test system: Streptococcus pneumoniae; experiment: Antibacterial activity against Streptococcus pneumoniae ATCC 6305 after 20 to 24 hrs by two-fold microdilution method; assay type: functional
[9] = test system: Staphylococcus aureus; experiment: Antibacterial activity against methicillin-resistant Staphylococcus aureus 519238 clinical isolate after 20 to 24 hrs by two-fold microdilution method; assay type: functional
[10] = Solubility of the compound in water at 25 degC measured after shaking for 4 hrs by UV method; assay type: physicochemical; conditions: buffer, 4 h
[11] = test system: Staphylococcus aureus; experiment: Antibacterial activity against methicillin-resistant Staphylococcus aureus 10281-2 clinical isolate after 20 to 24 hrs by two-fold microdilution method; assay type: functional
[12] = test system: Staphylococcus aureus; experiment: Antibacterial activity against methicillin-resistant Staphylococcus aureus clinical isolate after 20 to 24 hrs by two-fold microdilution method; assay type: functional
[13] = test system: Staphylococcus aureus; experiment: Antibacterial activity against methicillin-resistant Staphylococcus aureus 109016 clinical isolate after 20 to 24 hrs by two-fold microdilution method; assay type: functional
[14] = test system: Staphylococcus aureus; experiment: Antibacterial activity against methicillin-resistant Staphylococcus aureus 215073 clinical isolate after 20 to 24 hrs by two-fold microdilution method; assay type: functional
[15] = test system: Staphylococcus aureus; experiment: Antibacterial activity against methicillin-resistant Staphylococcus aureus 110432 clinical isolate after 20 to 24 hrs by two-fold microdilution method; assay type: functional
[16] = test system: Staphylococcus aureus; experiment: Antibacterial activity against methicillin-resistant Staphylococcus aureus 110328-1 clinical isolate after 20 to 24 hrs by two-fold microdilution method; assay type: functional
[17] = test system: Staphylococcus aureus; experiment: Antibacterial activity against methicillin-resistant Staphylococcus aureus 110414 clinical isolate after 20 to 24 hrs by two-fold microdilution method; assay type: functional
[18] = test system: Staphylococcus aureus; experiment: Antibacterial activity against methicillin-resistant Staphylococcus aureus 3250299 clinical isolate after 20 to 24 hrs by two-fold microdilution method; assay type: functional
[19] = test system: Staphylococcus aureus; experiment: Antibacterial activity against methicillin-resistant Staphylococcus aureus 112430 clinical isolate after 20 to 24 hrs by two-fold microdilution method; assay type: functional
[20] = test system: Streptococcus pyogenes; experiment: Antibacterial activity against Streptococcus pyogenes ATCC 19615 after 20 to 24 hrs by two-fold microdilution method; assay type: functional
[21] = test system: Staphylococcus aureus; experiment: Antibacterial activity against methicillin-resistant Staphylococcus aureus 504008 clinical isolate after 20 to 24 hrs by two-fold microdilution method; assay type: functional
[22] = test system: Staphylococcus aureus; experiment: Antibacterial activity against methicillin-resistant Staphylococcus aureus 20339 clinical isolate after 20 to 24 hrs by two-fold microdilution method; assay type: functional
[23] = test system: Staphylococcus aureus; experiment: Antibacterial activity against methicillin-resistant Staphylococcus aureus 11703 clinical isolate after 20 to 24 hrs by two-fold microdilution method; assay type: functional
[24] = test system: Staphylococcus aureus; experiment: Antibacterial activity against methicillin-resistant Staphylococcus aureus 19950 clinical isolate after 20 to 24 hrs by two-fold microdilution method; assay type: functional
[25] = test system: Staphylococcus aureus; experiment: Antibacterial activity against methicillin-resistant Staphylococcus aureus 1024010 clinical isolate after 20 to 24 hrs by two-fold microdilution method; assay type: functional
[26] = test system: Staphylococcus aureus; experiment: Antibacterial activity against methicillin-resistant Staphylococcus aureus 502025 clinical isolate after 20 to 24 hrs by two-fold microdilution method; assay type: functional
[27] = test system: Staphylococcus aureus; experiment: Antibacterial activity against methicillin-resistant Staphylococcus aureus 531220 clinical isolate after 20 to 24 hrs by two-fold microdilution method; assay type: functional
[28] = test system: Staphylococcus aureus; experiment: Antibacterial activity against methicillin-resistant Staphylococcus aureus 121969 clinical isolate after 20 to 24 hrs by two-fold microdilution method; assay type: functional
[29] = test system: Staphylococcus aureus; experiment: Antibacterial activity against methicillin-resistant Staphylococcus aureus 523005 clinical isolate after 20 to 24 hrs by two-fold microdilution method; assay type: functional
[30] = test system: Staphylococcus aureus; experiment: Antibacterial activity against methicillin-resistant Staphylococcus aureus 216054 clinical isolate after 20 to 24 hrs by two-fold microdilution method; assay type: functional
[31] = test system: Staphylococcus aureus; experiment: Antibacterial activity against methicillin-resistant Staphylococcus aureus 822030 clinical isolate after 20 to 24 hrs by two-fold microdilution method; assay type: functional
[32] = test system: Staphylococcus aureus; experiment: Antibacterial activity against methicillin-resistant Staphylococcus aureus 111625 clinical isolate after 20 to 24 hrs by two-fold microdilution method; assay type: functional
[33] = test system: Staphylococcus aureus; experiment: Antibacterial activity against methicillin-resistant Staphylococcus aureus 530231 clinical isolate after 20 to 24 hrs by two-fold microdilution method; assay type: functional
[34] = test system: Staphylococcus aureus; experiment: Antibacterial activity against methicillin-resistant Staphylococcus aureus 102849 clinical isolate after 20 to 24 hrs by two-fold microdilution method; assay type: functional
[35] = test system: Staphylococcus aureus; experiment: Antibacterial activity against methicillin-resistant Staphylococcus aureus 919205 clinical isolate after 20 to 24 hrs by two-fold microdilution method; assay type: functional
[36] = test system: Staphylococcus aureus; experiment: Antibacterial activity against methicillin-resistant Staphylococcus aureus 1113041 clinical isolate after 20 to 24 hrs by two-fold microdilution method; assay type: functional
[37] = test system: Staphylococcus aureus; experiment: Antibacterial activity against methicillin-resistant Staphylococcus aureus 1101016 clinical isolate after 20 to 24 hrs by two-fold microdilution method; assay type: functional
[38] = test system: Staphylococcus aureus; experiment: Antibacterial activity against methicillin-resistant Staphylococcus aureus 414244 clinical isolate after 20 to 24 hrs by two-fold microdilution method; assay type: functional
[39] = test system: Enterococcus faecalis; experiment: Antibacterial activity against Enterococcus faecalis ATCC 29212 after 20 to 24 hrs by two-fold microdilution method; assay type: functional
[40] = test system: Staphylococcus aureus; experiment: Antibacterial activity against methicillin-resistant Staphylococcus aureus 109244 clinical isolate after 20 to 24 hrs by two-fold microdilution method; assay type: functional
[41] = test system: Staphylococcus aureus; experiment: Antibacterial activity against methicillin-resistant Staphylococcus aureus 30116-1 clinical isolate after 20 to 24 hrs by two-fold microdilution method; assay type: functional
[42] = test system: Staphylococcus aureus; experiment: Antibacterial activity against methicillin-resistant Staphylococcus aureus 110910-2 clinical isolate after 20 to 24 hrs by two-fold microdilution method; assay type: functional
[43] = test system: Staphylococcus aureus; experiment: Antibacterial activity against methicillin-resistant Staphylococcus aureus 1106003 clinical isolate after 20 to 24 hrs by two-fold microdilution method; assay type: functional
[44] = test system: Staphylococcus aureus; experiment: Antibacterial activity against methicillin-resistant Staphylococcus aureus 921026 clinical isolate after 20 to 24 hrs by two-fold microdilution method; assay type: functional
[45] = test system: Staphylococcus aureus; experiment: Antibacterial activity against methicillin-resistant Staphylococcus aureus 20106-2 clinical isolate after 20 to 24 hrs by two-fold microdilution method; assay type: functional
[46] = test system: Staphylococcus aureus; experiment: Antibacterial activity against methicillin-resistant Staphylococcus aureus 131215 clinical isolate after 20 to 24 hrs by two-fold microdilution method; assay type: functional
[47] = test system: Staphylococcus aureus; experiment: Antibacterial activity against methicillin-resistant Staphylococcus aureus 121026 clinical isolate after 20 to 24 hrs by two-fold microdilution method; assay type: functional

## O=C1c2cccnc2C(=O)c2c1c(C(=O)OCCCCN1CCOCC1)c1ccc(Br)cn21
[1]
  MIC: 0.063 µg/mL (≈ 0.123 µM)
[2]
  MIC: 0.5 µg/mL (≈ 0.976 µM)
[3]
  MIC: 0.25 µg/mL (≈ 0.488 µM)
[4]
  MIC: 0.5 µg/mL (≈ 0.976 µM)
[5]
  MIC: 0.25 µg/mL (≈ 0.488 µM)
[6]
  MIC: 0.5 µg/mL (≈ 0.976 µM)
[7]
  MIC: 0.5 µg/mL (≈ 0.976 µM)
[8]
  MIC: 4 µg/mL (≈ 7.81 µM)
[9]
  MIC: 0.5 µg/mL (≈ 0.976 µM)
[10]
  solubility: Insoluble
[11]
  MIC: 0.5 µg/mL (≈ 0.976 µM)
[12]
  MIC50: 0.5 µg/mL (≈ 0.976 µM)
  MIC90: 1 µg/mL (≈ 1.95 µM)
[13]
  MIC: 0.5 µg/mL (≈ 0.976 µM)
[14]
  MIC: 0.063 µg/mL (≈ 0.123 µM)
[15]
  MIC: 0.25 µg/mL (≈ 0.488 µM)
[16]
  MIC: ≤ 0.0078 µg/mL
[17]
  MIC: 0.5 µg/mL (≈ 0.976 µM)
[18]
  MIC: 0.5 µg/mL (≈ 0.976 µM)
[19]
  MIC: 0.5 µg/mL (≈ 0.976 µM)
[20]
  MIC: 4 µg/mL (≈ 7.81 µM)
[21]
  MIC: 0.25 µg/mL (≈ 0.488 µM)
[22]
  MIC: 0.5 µg/mL (≈ 0.976 µM)
[23]
  MIC: 0.5 µg/mL (≈ 0.976 µM)
[24]
  MIC: 1 µg/mL (≈ 1.95 µM)
[25]
  MIC: 0.5 µg/mL (≈ 0.976 µM)
[26]
  MIC: 0.5 µg/mL (≈ 0.976 µM)
[27]
  MIC: 0.25 µg/mL (≈ 0.488 µM)
[28]
  MIC: 1 µg/mL (≈ 1.95 µM)
[29]
  MIC: 0.5 µg/mL (≈ 0.976 µM)
[30]
  MIC: 0.063 µg/mL (≈ 0.123 µM)
[31]
  MIC: 0.5 µg/mL (≈ 0.976 µM)
[32]
  MIC: 0.5 µg/mL (≈ 0.976 µM)
[33]
  MIC: 0.5 µg/mL (≈ 0.976 µM)
[34]
  MIC: 0.5 µg/mL (≈ 0.976 µM)
[35]
  MIC: 1 µg/mL (≈ 1.95 µM)
[36]
  MIC: 0.5 µg/mL (≈ 0.976 µM)
[37]
  MIC: 0.25 µg/mL (≈ 0.488 µM)
[38]
  MIC: 1 µg/mL (≈ 1.95 µM)
[39]
  MIC: 0.25 µg/mL (≈ 0.488 µM)
[40]
  MIC: 0.25 µg/mL (≈ 0.488 µM)
[41]
  MIC: 0.5 µg/mL (≈ 0.976 µM)
[42]
  MIC: 0.5 µg/mL (≈ 0.976 µM)
[43]
  MIC: 16 µg/mL (≈ 31.2 µM)
[44]
  MIC: 0.5 µg/mL (≈ 0.976 µM)
[45]
  MIC: 0.5 µg/mL (≈ 0.976 µM)
[46]
  MIC: 0.125 µg/mL (≈ 0.244 µM)
[47]
  MIC: 0.25 µg/mL (≈ 0.488 µM)
